Test results published in patent EP4603105A1, “PHARMACEUTICAL COMPOSITION CONTAINING CYCLIC COMPOUND HAVING SELECTIVE KRAS INHIBITORY EFFECT AGAINST HRAS AND NRAS” (CHUGAI SEIYAKU KABUSHIKI KAISHA, priority 2022, dated 2024).
pIC50, pKd: −log10 of the molar value. Where a SMILES comes first, the peptide text is derived from it. Bridges are numbered along the chain shown (N, C = ends). [ ]: non-standard residue; d: D form. The star is where a group is joined. hPhe(3-Cl-4-CF3) = N[C@@H](CCc1ccc(C(F)(F)F)c(Cl)c1)C(=O)O; NPrPhe(4-CF3) = CCCN[C@@H](Cc1ccc(C(F)(F)F)cc1)C(=O)O; NMeGly(cPent) = CN[C@H](C(=O)O)C1CCCC1; NMeD = CN[C@@H](CC(=O)O)C(=O)O; NMeNva = CCC[C@H](NC)C(=O)O; Morpholide = C1CN(*)CCO1; Ac4c = NC1(C(=O)O)CCC1; NPrGly = CCCNCC(=O)O; Sar = CNCC(=O)O

What was measured:
[1] = target: GDP-bound KRAS wild-type protein (Homo sapiens, UniProt P01116); assay: Binding to KRAS by surface plasmon resonance (SPR), dissociation constant KD
Chain of GDP-bound KRAS wild-type protein (P01116 1-188 isoform P01116-2): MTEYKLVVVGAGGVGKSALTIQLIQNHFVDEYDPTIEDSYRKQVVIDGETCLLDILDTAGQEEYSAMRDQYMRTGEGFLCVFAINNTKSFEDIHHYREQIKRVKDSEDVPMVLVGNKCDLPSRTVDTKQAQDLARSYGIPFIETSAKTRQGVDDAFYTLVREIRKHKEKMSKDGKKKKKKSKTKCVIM
Procedure, shortened: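 Recombinant RAS proteins bearing a biotinylated Avi tag and loaded with GDP served as the captured ligand, recaptured fresh every cycle. Binding responses were referenced to an uncoated surface and a buffer-only blank cycle. Dissociation constants were obtained by 1:1 model fitting at 30°C.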

[2] = target: GDP-bound NRAS wild-type protein (Homo sapiens, UniProt P01111); assay: Binding to NRAS by surface plasmon resonance (SPR), KD and KD ratio to KRAS
Chain of GDP-bound NRAS wild-type protein (P01111 whole entry): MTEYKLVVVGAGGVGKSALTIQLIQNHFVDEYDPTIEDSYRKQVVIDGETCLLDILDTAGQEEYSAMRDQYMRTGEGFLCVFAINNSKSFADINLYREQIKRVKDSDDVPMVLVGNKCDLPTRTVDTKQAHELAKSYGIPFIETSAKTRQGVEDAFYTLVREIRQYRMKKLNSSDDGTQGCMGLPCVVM
Procedure, shortened: (§1)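 Single-cycle kinetics on GDP-loaded biotin-Avi RAS captured to ~100–300 RU; 75 s ascending injections, 100 µL/min, 30°C. HBS pH 7.4 + 10 mM MgCl2/10 µM GDP/4% DMSO. 1:1 fit, KD.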

[3] = target: HRAS wild-type protein (Homo sapiens, UniProt P01112); assay: Binding to HRAS by surface plasmon resonance (SPR), KD and KD ratio to KRAS
Chain of HRAS wild-type protein (P01112 whole entry): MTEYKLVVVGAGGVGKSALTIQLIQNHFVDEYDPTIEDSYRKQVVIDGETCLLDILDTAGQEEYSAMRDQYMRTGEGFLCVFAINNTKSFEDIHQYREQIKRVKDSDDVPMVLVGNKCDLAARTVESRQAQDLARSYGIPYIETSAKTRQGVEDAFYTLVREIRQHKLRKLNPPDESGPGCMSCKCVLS
Procedure, shortened: as §1

[4] = tested on: human lung cancer strain NCI-H441; type: cell-based
Procedure, shortened: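 Proliferation was scored by […] measured after the reagent was added to cultures kept at 37°C in 5% carbon dioxide.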

[5] = ratio of KD for GDP-bound NRAS wild-type protein to KD for KRAS
[6] = ratio of KD for HRAS wild-type protein to KD for KRAS
[7] = Single Cycle Kinetics, 1:1 binding model
[8] = ratio of the KD value with respect to GDP-bound NRAS wild-type protein to the KD value with respect to KRAS
[9] = ratio of the KD value with respect to HRAS wild-type protein to the KD value with respect to KRAS
[10] = ratio of KD value for GDP-bound NRAS wild-type protein to KD value for KRAS (SPR)
[11] = ratio of KD value for HRAS wild-type protein to KD value for KRAS (SPR)

Row | pKd ([1]; 1:1 binding model) | pIC50 [4] | pKd [1, 7] | pKd ([1]; Single Cycle Kinetics) | Compound | NRAS /KRAS [2, 5] | HRAS /KRAS [3, 6] | NRAS /KRAS [2, 8] | HRAS /KRAS [3, 9] | NRAS /KRAS [2, 10] | HRAS /KRAS [3, 11]
1 | 10.51 | 8.92 |  |  | CCO[C@@H]1C[C@H]2C(=O)N(C)C3(CC(C)(C)C3)C(=O)N(C)[C@@H](C3CCCC3)C(=O)N(C)[C@H](C(=O)N(C)C)CC(=O)N(C)[C@H]3CCCCCc4ccc(cc4)C[C@@H](C(=O)N(C)CC(=O)N[C@@H](CCc4ccc(C(F)(F)F)c(OC)c4)C(=O)N2C1)N1CC/C=C\C[C@@H](C1=O)N(C)C(=O)CN(C)C(=O)[C@H]([C@@H](C)CC)NC3=O [PP3091] | A (a compound having 10 or more and less than 20 is denoted as A) | B (a compound having 3 or more and less than 10 is denoted as B) |  |  |  | 
2 |  | 6.47 | 8.47 |  | CCO[C@@H]1C[C@H]2C(=O)NC3(CCC3)C(=O)N(C)[C@@H](C3CCCC3)C(=O)N(CC)[C@H](C(=O)N3CCOCC3)CC(=O)N(C)[C@@H](CC(C)C)C(=O)N[C@@H]([C@@H](C)CC)C(=O)N(C)CC(=O)N(C)[C@H]3CCCCCN(C3=O)[C@@H](Cc3ccc(C(F)(F)F)cc3)C(=O)N(C)CC(=O)N[C@@H](CCc3cc(F)c(C(F)(F)F)c(F)c3)C(=O)N2C1 [PP0638] |  |  | B (a compound having 3 or more and less than 10 is denoted as B) | B (a compound having 3 or more and less than 10 is denoted as B) |  | 
3 |  | 7.07 | 9.04 |  | CCC[C@H]1C(=O)N[C@@H](C2CCCC2)C(=O)N(C)CC(=O)N(C)[C@H]2C/C=C\CCN(C2=O)[C@@H](Cc2ccc(C)cc2)C(=O)N(C)CC(=O)N[C@@H](CCc2ccc(C(F)(F)F)c(Cl)c2)C(=O)N2C[C@H](OCC)C[C@H]2C(=O)NC2(CC(C)(C)C2)C(=O)N(C)[C@@H](CC(C)C)C(=O)N(C)[C@H](C(=O)N(C)C)CC(=O)N1C [PP2190] |  |  | A (a compound having 10 or more and less than 20 is denoted as A) | A (a compound having 10 or more and less than 20 is denoted as A) |  | 
4 |  | 8.03 | 9.04 |  | CCC[C@H]1C(=O)N[C@@H]([C@@H](C)CC)C(=O)N(C)CC(=O)N(CCC)CC(=O)N(CCC)[C@@H](Cc2ccc(C(F)(F)F)cc2)C(=O)N(C)CC(=O)N[C@@H](CCc2ccc(C(F)(F)F)c(Cl)c2)C(=O)N2CCC[C@H]2C(=O)NC2(CCC2)C(=O)N(C)[C@@H](C2CCCC2)C(=O)N(C)[C@H](C(=O)N2CCOCC2)CC(=O)N1C [PP1949] ([NMeNva]I[Sar][NPrGly][NPrPhe(4-CF3)][Sar][hPhe(3-Cl-4-CF3)]P[Ac4c][NMeGly(cPent)][NMeD]-Morpholide; lactam N-11) |  |  | C (A compound having a KD ratio of 0.1 or more and less than 3 is denoted as C) | C (A compound having a KD ratio of 0.1 or more and less than 3 is denoted as C) |  | 
5 |  | 8.12 | 10.00 |  | CC[C@H](C)[C@@H]1NC(=O)[C@H](CC2CCC2)N(C)C(=O)C[C@@H](C(=O)N(C)C)N(C)C(=O)[C@H](C2CCCC2)N(C)C(=O)C2(CCC2)N(C)C(=O)[C@@H]2C[C@@H](C)CN2C(=O)[C@H](CCc2cc(F)c(C(F)(F)F)c(F)c2)NC(=O)CN(C)C(=O)[C@H](Cc2ccc(C)cc2)N2CC/C=C\C[C@@H](C2=O)N(C)C(=O)CN(C)C1=O [PP1803] |  |  |  |  | A (a compound having 10 or more and less than 20 is denoted as A) | B (a compound having 3 or more and less than 10 is denoted as B)
6 |  | 6.53 |  | 9.12 | CCO[C@@H]1C[C@H]2C(=O)NC3(CCC3)C(=O)N(C)[C@@H](C3CCCC3)C(=O)N(C)[C@H](C(=O)N(C)C)CC(=O)N(CC)[C@@H](CC(C)C)C(=O)N[C@@H]([C@@H](C)CC)C(=O)N(C)CC(=O)N(C)[C@H]3CC(C)=CCN(C3=O)[C@@H](Cc3ccc(C(F)(F)F)cc3)C(=O)N(C)CC(=O)N[C@@H](CCc3cc(F)c(C(F)(F)F)c(F)c3)C(=O)N2C1 [PP1037] | C (A compound having a KD ratio of 0.1 or more and less than 3 is denoted as C) | C (A compound having a KD ratio of 0.1 or more and less than 3 is denoted as C) |  |  |  | 
7 | 8.96 | 7.56 |  |  | CC[C@H](C)[C@@H]1NC(=O)[C@H](COC)N(C)C(=O)C[C@@H](C(=O)N(C)CC)N(C)C(=O)[C@H](C2CCCC2)N(C)C(=O)C2(CC(C)(C)C2)NC(=O)[C@@H]2CC(F)(F)CN2C(=O)[C@H](CCc2ccc(C(F)(F)F)c(Cl)c2)NC(=O)CN(C)C(=O)[C@H](Cc2ccc(C(F)(F)F)cc2)N2CC/C=C\C[C@@H](C2=O)N(C)C(=O)CN(CC)C1=O [PP3135] | A (a compound having 10 or more and less than 20 is denoted as A) | A (a compound having 10 or more and less than 20 is denoted as A) |  |  |  | 
8 | 8.62 | 7.12 |  |  | CCO[C@@H]1C[C@H]2C(=O)NC3(CC(C)(C)C3)C(=O)N(C)[C@@H](C3CCCC3)C(=O)N(C)[C@H](C(=O)N(C)CC)CC(=O)N(C)[C@@H](CC(C)C)C(=O)N[C@@H]([C@@H](C)CC)C(=O)N(C)CC(=O)N(C)[C@H]3C/C=C\CCN(C3=O)[C@@H](Cc3ccc(C(F)F)cc3)C(=O)N(C)CC(=O)N[C@@H](CCc3cc(C)c(C4CC4)c(C)c3)C(=O)N2C1 [PP3148] | A (a compound having 10 or more and less than 20 is denoted as A) | A (a compound having 10 or more and less than 20 is denoted as A) |  |  |  | 
9 | 9.49 | 7.89 |  |  | CCC[C@H]1C(=O)N[C@@H]([C@@H](C)CC)C(=O)N(C)CC(=O)N(C)[C@H]2C/C=C\CCN(C2=O)[C@@H](Cc2ccc(C)cc2)C(=O)N(C)CC(=O)N[C@@H](CCc2cc(F)c(C(F)(F)F)c(F)c2)C(=O)N2C[C@H](OCC)C[C@H]2C(=O)NC2(CC(C)(C)C2)C(=O)N(C)[C@@H](CC(C)C)C(=O)N(C)[C@H](C(=O)N(C)C)CC(=O)N1C [PP2995] | A (a compound having 10 or more and less than 20 is denoted as A) | A (a compound having 10 or more and less than 20 is denoted as A) |  |  |  | 
10 |  | 8.09 | 9.40 |  | CCC[C@H]1C(=O)N[C@@H]([C@@H](C)CC)C(=O)N(C2CC2)CC(=O)N(C)[C@H]2C/C=C\CCN(C2=O)[C@@H](Cc2ccc(C)cc2)C(=O)N(C)CC(=O)N[C@@H](CCc2ccc(C(F)(F)F)c(OC)c2)C(=O)N2C[C@H](OCC)C[C@H]2C(=O)N(C)C2(CCC2)C(=O)N(C)[C@@H](C(CC)CC)C(=O)N(C)[C@H](C(=O)N(C)C)CC(=O)N1C [PP2325] |  |  | A (a compound having 10 or more and less than 20 is denoted as A) | A (a compound having 10 or more and less than 20 is denoted as A) |  | 
11 |  | 5.86 |  | 7.77 | CCO[C@@H]1C[C@H]2C(=O)NC3(CCC3)C(=O)N(C)[C@@H](C3CCCC3)C(=O)N(C)[C@H](C(=O)N(C)C)CC(=O)N(C)[C@@H](CC)C(=O)N[C@@H]([C@@H](C)CC)C(=O)N3CC[C@@H]3C(=O)N(C)[C@H]3C/C=C\CCN(C3=O)[C@@H](Cc3ccc(C(F)(F)F)cc3)C(=O)N(C)CC(=O)N[C@@H](CCc3cc(F)c(C(F)(F)F)c(F)c3)C(=O)N2C1 [PP1064] | A (a compound having 10 or more and less than 20 is denoted as A) | A (a compound having 10 or more and less than 20 is denoted as A) |  |  |  | 
12 |  | 7.17 | 9.40 |  | CC[C@H](C)[C@@H]1NC(=O)[C@H](CC2CC2)N(C)C(=O)C[C@@H](C(=O)N2CCCC2)N(C)C(=O)[C@H](C2CCCC2)N(C)C(=O)C2(CCCC2)NC(=O)[C@@H]2C[C@@H](C(F)(F)F)CN2C(=O)[C@H](CCc2cc(F)c(C(F)(F)F)c(F)c2)NC(=O)CN(C)C(=O)[C@H](Cc2ccc(F)cc2)N2CC/C=C\C[C@@H](C2=O)N(C)C(=O)CN(C)C1=O [PP1509] |  |  |  |  | A (a compound having 10 or more and less than 20 is denoted as A) | A (a compound having 10 or more and less than 20 is denoted as A)
13 | 9.49 | 8.05 |  |  | CCC(CC)[C@H]1C(=O)N(C)[C@H](C(=O)N(C)C)CC(=O)N(C)[C@@H](COC)C(=O)N[C@@H]([C@@H](C)CC)C(=O)N(C)CC(=O)N(C)[C@H]2C/C=C\CCN(C2=O)[C@@H](Cc2ccc(C)cc2)C(=O)N(C)CC(=O)N[C@@H](CCc2cc(F)c(C(F)(F)F)c(F)c2)C(=O)N2CCCCC[C@H]2C(=O)NC2(CC(C)(C)C2)C(=O)N1C [PP2960] | A (a compound having 10 or more and less than 20 is denoted as A) | A (a compound having 10 or more and less than 20 is denoted as A) |  |  |  | 
14 |  | 7.95 | 9.55 |  | CCO[C@@H]1C[C@H]2C(=O)NC3(CCC3)C(=O)N(C)[C@@H](C3CCCC3)C(=O)N(C)[C@H](C(=O)N(C)C)CC(=O)N(C)[C@@H](CC3CCCC3)C(=O)N[C@@H]([C@@H](C)CC)C(=O)N(C)CC(=O)N(C)[C@H]3CCCCCN(C3=O)[C@@H](Cc3ccc(C(F)(F)F)cc3)C(=O)N(C)CC(=O)N[C@@H](CCc3cc(F)c(C(F)(F)F)c(F)c3)C(=O)N2C1 [PP0670] |  |  | B (a compound having 3 or more and less than 10 is denoted as B) | B (a compound having 3 or more and less than 10 is denoted as B) |  | 
15 |  | 6.92 | 8.57 |  | C=CCCCCN(C)C(=O)[C@@H]1CC(=O)N(C)[C@@H](CC2CC2)C(=O)N[C@@H](CC=C)C(=O)N(C)CC(=O)N(C)[C@H]2C/C=C\CCN(C2=O)[C@@H](Cc2ccc(C(F)(F)F)cc2)C(=O)N(C)CC(=O)N[C@@H](CCc2cc(F)c(C(F)(F)F)c(F)c2)C(=O)N2C[C@H](OCC)C[C@H]2C(=O)NC2(CCC2)C(=O)N(C)[C@@H](C2CCCC2)C(=O)N1C [PP1554] |  |  |  |  | A (a compound having 10 or more and less than 20 is denoted as A) | A (a compound having 10 or more and less than 20 is denoted as A)
